From patent US20110230367A1, “Amphiphilic Peptides Promoting Production of Target miRNA and Method of Regulating Production of Target miRNA” (SNU R&DB FOUNDATION, priority 2009, published 2011)
Entries after “also recorded” stand apart in the source; their conditions may differ. Like-named read-outs stand apart in the source and are kept apart here.

Tests used:
HBV (hairpin RNA) = test: Dissociation constant by competitive fluorescence anisotropy with rhodamine-rev peptide probe; assay type: binding; conditions: Table 6
Experimental: (§1) The binding affinity between the peptide synthesized in <Example 1> and pre-miRNA from <Example 2> were measured by fluorescence anisotropy using competitive binding method. A rev peptide with rhodamine attached at the N-terminal was used as a fluorescent probe and LS-55 luminescence spectrometer from Perkin-Elmer was use for analysis. A constant temperature of 20° C. was maintained by a water bath. The fluorescent intensity was measured by of 200 nM of rhodamine-rev peptide was measured with an excitation wavelength at 550 nm (band path 10 nm) and detection at 580 nm (band path 10 nm). The integration time […]. Each experimental value is the mean value of 5 measurements. A 20 mM of HEPES{4-(2-hydroxyethyl)-1-piperazineethanesulfonic acid} buffer (pH 7.5) containing 140 mM NaCl, 5 mM KCl and 1 mM MgCl2 was used for measuring the dissociation constant. The dissociation constant was determined according to the Mathematical Formula 1 and using Kaledia graph.
(§2) A and Ao are the fluorescence anistropy in the presence or absence of RNA, whereas ΔA is the difference between these two values. [RNA]0 and [Rh-rev]0 are initial concentrations of RNA and rev peptide binding with rhodamine.
(§3) According the method described in <Example 3>, the dissociation constant between second generation peptide and 2 pre-miRNAs synthesized from <Example 2> was determined using fluorescent polarization detection method and fluorescent probe molecule.

IRES (hairpin RNA) = test: as above; assay type: binding; conditions: Table 6
Experimental: as §1, §2, §3

pre-let7a-1 = test: as above; assay type: binding; conditions: for Discrimination ratio pre-let7a-1 (in parenthesis): Kd against other RNA (HBV, IRES, other miRNAs)/Kd against target miRNA
Experimental: as §1, §2, §3

pre-miR16-1 = test: as above; assay type: binding; conditions: for Discrimination ratio pre-miR16-1 (in parenthesis): Kd against other RNA/Kd against target miRNA
Experimental: as §1, §2, §3

pre-miR24-1 = test: as above; assay type: binding; conditions: Table 6; for Discrimination ratio pre-miR24-1 (in parenthesis): Kd against other RNA/Kd against target miRNA
Experimental: as §1, §2, §3

[1] = test system: recombinant human Dicer processing pre-miR16-1; test: Dicer activity assay in the presence of peptide, substrate pre-miR16-1; assay type: biochemical; conditions: 400 nM peptide, pre-miR16-1 substrate, FIG. 2
Experimental: Two types of pre-miRNA (pre-let7a-1, pre-miR16-1) used as the substrate for the Dicer enzyme activity assay was ordered and manufactured by ST Pharm Co., Ltd (FIG. 1). For Dicer activity assay, the 5′ end of the synthesized pre-miRNA was labeled with ^32p isotope. Two pmole of each pre-miRNA was isotope labeled with […] of [g-^32P]ATP (New England Biolabs) using 10 units of T4 polynucleotide kinase (New England Biolabs). Total volume of 10 μl was isotope labeled for 1 hr at 37° C. The isotope labeled RNA obtained after the reaction was purified using G-25 Sephadex column (Sigma). The purified substrate was used for measuring Dicer enzyme activity. Total reaction mixture of 30 μl containing 1 nM of isotope labeled pre-miRNA and 0.001 u/μl of recombinant human Dicer (Genlantis, CA, USA) were incubated at 37° C. in 24 mM 4-(2-hydroxyethyl)-1-piperazineethanesulfonic acid, HEPES) buffer system containing 200 mM NaCl, 0.04 mM EDTA, 1 mM ATP and 2.5 mM MgCl2(pH 8.0). After reacting for 0, 10, 30, 60 or 120 min in the presence of 400 nM concentration of 2b or 2c peptide, 3 μl of each reaction mixture was mixed with 5 μl of RNA gel loading buffer {95% formamide, 10 mM ethylenediaminetetraacetic acid (EDTA), 0.05% FF (xylene cyanol FF)} and incubated for 5 min at 65° C. The amount of the reaction product was determined by gel running in 15% polyacrylamide gel containing 7M urea, and then the initial reaction velocity (V0) from each reaction was compared. The initial reaction velocity (V0) of the enzyme is the reaction velocity of the initial linear time (until 30 min). Each initial velocity was normalized with the initial velocity from each substrate condition without peptide treatment. The initial reaction velocity of Dicer for pre-let7a-1 and pre-miR16-1 without peptide treatment were […] and 0.018 fmole/min, respectively. Each of the initial reaction velocity is a mean data of more than 3 measurements, and the standard deviation is shown as error bars.

[2] = test system: mature let7a-1 in HCT116 cells; test: Production of mature miRNA in HCT116 cells by northern blotting; assay type: cell-based; conditions: 2 μM peptide, 3 hrs, FIG. 4
Experimental: The HCT116 cell was purchased from American Type Culture Collection (ATCC) and was cultured in RPMI1640 medium at 37° C., under 5% CO2. Total RNA was extracted using Trizol reagent (Invitrogen) according to the manufactures recommended protocol.
The change in RNA amount was analyzed by culturing the cells with 2 μM concentration of peptide 2b or peptide 2c and with lipofectamine.
HCT116 cells were treated with 2 μM of peptide 2b, 2c, 1e or 0.2 μg/ml of doxorubicin for 3 hrs before analyzing the production of mature miRNA in total RNA using northern blotting. The 18S rRNA band intensity was used as the loading control. […] Peptide 1e was used as a negative control. Decade marker (Ambion) and 10˜20 μg of total RNA were separated by using 12.5% polyacrylamide gel containing 7M urea in 20 mM of 3-(N-morpholino)propanesulfonic acid (MOPS)-NaOH(pH 7.0) buffer at 350V for 2 hrs. RNA blotting was performed by chemical cross-linking method. Each of the separated RNA was transferred with the neutral nylon membrane (Hybond NX, Amersham/Pharmacia) and crosslinked to the membrane using 1-ethyl-3-(3-dimethylaminopropyl)carbodiimide (EDC). The membrane was prehybridized with the hybridization buffer (Clontech, CA, USA) containing 50 μl of 10 mg/ml of salmon sperm DNA. Next, the isotope labeled probe DNA which is complementary to the miRNA sequence was hybridized for 2 hrs in the same buffer condition.
The probe was isotope labeled with 25 μCi of [γ-^32P] ATP (New England Biolabs) and 5 units of polynucleotide kinase (New England Biolabs). The probe was ethanol precipitated and dissolved in 50 μl of DEPC treated water for use. The membrane was washed twice for 30 min with 200 ml of wash buffer containing 0.3 M NaCl, 0.03 M sodium citrate and 0.05% sodium dodecyl sulfate (SDS)(pH 7.0), then washed twice for 15 min with 200 ml of wash buffer containing 0.015 M NaCl, 0.0015 M sodium citrate and 0.1% SDS(pH 7.0). The membrane was exposed on the phosphorimager screen and each of the band intensity was detected by FLA-3000 and analyzed by using MultiGauge Ver. 3.0 software (Fuji Photo).

[3] = Table 5, second generation peptides, read-out: Kd value against pre-let7a-1
[4] = Table 6, read-out: Kd pre-let7a-1
[5] = Table 5, second generation peptides, read-out: Kd value against pre-miR16-1
[6] = Table 6, read-out: Kd pre-miR16-1

| Sequence | Kd (HBV (hairpin RNA)) [nM] | Kd (IRES (hairpin RNA)) [nM] | Kd (pre-let7a-1; [3]) [nM] | Discrimination ratio pre-let7a-1 (in parenthesis) (pre-let7a-1; Table 6) | Kd (pre-let7a-1; [4]) [nM] | binding with pre-miR16-1 (pre-miR16-1) | Kd (pre-miR16-1; [5]) [nM] | Discrimination ratio pre-miR16-1 (in parenthesis) (pre-miR16-1; Table 6) | Kd (pre-miR16-1; [6]) [nM] | Kd (pre-miR24-1) [nM] | Discrimination ratio pre-miR24-1 (in parenthesis) (pre-miR24-1) | initial reaction velocity (V0) of Dicer, normalized to no peptide [1] | level of mature let7a-1 [2] | binding with pre-let7a-1 (pre-let7a-1) | discrimination ratio for pre-let7a-1 (pre-let7a-1; mean Kd against all hairpin pre-miRNA/Kd against target pre-miRNA) |
| --- | --- | --- | --- | --- | --- | --- | --- | --- | --- | --- | --- | --- | --- | --- | --- |
| WKKLLKLLKKWLKLAG [Peptide 2c, Ac-WKKLLKLLKKWLKLAG, 14] | 0.46 | 0.46 | 0.15 | 2.8 | 0.15 | first and second strongest binding | 0.27 | 1.4 | 0.27 | 0.88 | 0.41 | increase in initial reaction velocity; also recorded: accelerated | increased | – | – |
| WKKLLKWLKKLLKLAG [Peptide 2b, Ac-WKKLLKWLKKLLKLAG, 13] | 0.9 | 1 | 0.067 | 11 | 0.067 | first and second strongest binding | 0.22 | 1.1 | 0.22 | 0.43 | 1.5 | significantly increased; also recorded: accelerated | significant increase | strong binding; also recorded: strongest binding | 11 |
